The source of these data is patent publication US6225336A, “Compounds having [2.2.1] bicyclo skeleton” (Shionogi & Co., Ltd., priority 1997, dated 2001).

Test [1] addresses T1, PGD2 Receptor (Homo sapiens, UniProt Q13258).
T1 construct: endogenous in cells; host or cells: washed human platelets from a healthy volunteer
T1 sequence (Q13258 1-359): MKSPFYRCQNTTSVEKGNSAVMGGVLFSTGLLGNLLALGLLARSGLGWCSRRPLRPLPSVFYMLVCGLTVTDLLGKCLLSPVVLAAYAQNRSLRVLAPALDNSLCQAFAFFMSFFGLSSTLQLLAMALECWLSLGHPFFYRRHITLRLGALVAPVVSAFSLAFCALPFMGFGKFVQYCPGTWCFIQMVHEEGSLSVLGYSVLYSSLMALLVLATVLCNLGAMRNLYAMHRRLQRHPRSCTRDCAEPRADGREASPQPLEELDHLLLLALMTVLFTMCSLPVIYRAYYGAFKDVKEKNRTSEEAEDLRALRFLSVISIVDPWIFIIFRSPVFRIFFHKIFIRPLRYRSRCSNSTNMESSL
The test can be described thus: Antagonistic Activity Against PGD2 Receptor Using Human Platelet (cAMP increased by PGD2). The format is cell-based. The settings on record: inhibition of cAMP increase by 0.1 μM PGD2 in washed human platelets. The procedure: Experiment 2 Evaluation of Antagonistic Activity Against PGD2 Receptor Using Human Platelet
Peripheral blood was collected from a healthy volunteer using a syringe in which 1/9 volume of a citric acid/dextrose solution was previously added. The sample was subjected to centrifugation at 180 g for 10 min to obtain the supernatant (PRP: platelet rich plasma). The resultant PRP was washed 3 times with a washing buffer and the number of platelet was counted with a micro cell counter. A suspension adjusted to contain the platelets at a final concentration of 5×10^8 /ml was warmed at 37° C., then subjected to the pre-treatment with 3-isobutyl-1-methylxanthine (0.5 mM) for 5 min. To the suspension was added a test compound diluted at various concentration, and 10 minutes later, 0.1 μM PGD2 was added to induce the reaction 2 minutes later, hydrochloric acid was added to terminate the reaction. The platelet was destroyed with an ultrasonic homogenizer. After centrifugation, the cAMP in the supernatant was determined by radioimmunoassay. PGD2 receptor antagonism of a drug was evaluated as follows: the inhibition rate regarding cAMP increased by the addition of PGD2 was determined at each concentration, and the concentration of the (drug required for 50% inhibition (IC50) was calculated. The results are shown below.

Test [2] concerns the target T1, PGD2 Receptor. The test can be described thus: Binding to PGD2 Receptor (human platelet membrane fraction, [3H]PGD2). The settings on record: 5 nM [3H]PGD2, pH 7.4, 4° C., 90 min, read-out: Inhibitory activity IC50. Here is the method: (1) Preparation of Human Platelet Membrane Fraction
Blood was collected using a plastic syringe containing 3.8% sodium citrate from the vein of healthy volunteers (adult male and female), then put into a plastic test tube and mixed by slow-reversion. The sample was then centrifuged at 1800 rpm. for 10 min at room temperature, and the supernatant containing PRP (platelet-rich plasma) was collected. The PRP was re-centrifuged at 2300 rpm, for 22 min at room temperature to obtain platelets. The platelets were homogenized using a homogenizer (Ultra-Turrax) followed by centrifugation 3 times at 20,000 rpm, 10 min at 4° C. to obtain a platelet membrane fraction. After protein determination, the membrane fraction was adjusted to 2 mg/ml and preserved in a refrigerator at -80° C. until using for the binding test.
(2) Binding to PGD2 Receptor.
To a binding-reaction solution (50 mM Tris/HCl, pH 7.4, 5 mM MgCl2) (0.2 ml) were added the human platelet membrane fraction (0.1 mg) and 5 nM [^3 H ]PGD2 (115 Ci/mmol), and the mixture was reacted at 4° C. for 90 min. After the reaction, the mixture was filtered through a glass fiber filter paper and washed several times with cooled physiologic saline, then the radioactivity retained on the filter paper was measured. The specific-binding ratio was calculated by subtracting the non-specific binding ratio which is the radio activity similarly measured in the presence of 10 μM PGD2 from the total binding. The inhibitory activity of each compound was expressed as the concentration required for 50% inhibition (IC50), which was determined by depicting a substitution curve by plotting the binding ratio (%) in the presence of each compound, where the binding ratio in the absence of a test compound is 100%.

The subject of test [3] is Hartley male guinea pig. The test can be described thus: Nasal Blockage Model (intranasal pressure of OVA-sensitized guinea pigs). Type of test: in vivo. The settings on record: 30 mg/kg orally 60 min before antigen exposure; intranasal pressure AUC 0-30 min vs vehicle. The procedure: Experiment Using Nasal Blockage Model
Recently, It has been paid an attention to a theory that PGD2 is one of causative substances of nasal blockage caused by allergic rhinitis, and proposed to develop an inhibitor of PGD2 biosynthesis or an antagonist to the PGD2 receptor as a drug reducing nasal blockage. Thus, as to the compounds of the present, invention. the anti-nasal blockage effect was evaluated by measuring the intranasal pressure of guinea pigs.
A 1% ovalbumin (OVA) solution was treated with an ultrasonic nebulizer to obtain an aerosol. Hartley male guinea pig was sensitized by inhaling the aerosol twice each or 10 min at one-week interval. Seven days after the sensitization, the guinea pig was exposed to an antigen to initiate the reaction. Briefly, the trachea of he guinea pig was incised under the anesthesia with pentobarbital (30 mg/kg. i.p.) and cannulas were inserted into the trachea at the pulmonary and nasal cavity sides. […] After arresting the spontaneous respiration of the guinea pig with Gallamin (2 mg/kg, i.v.), 4 ml/time of air was supplied to the snout side with an artificial respirator at the frequency of 70 times/min, and the atmospheric pressure required for the aeration was measured by using a transducer fitted at the branch. The measured pressure was used as a parameter of the nasal cavity resistance. […]

The target of test [4] is T2, TXA2 Receptor (Homo sapiens, UniProt P21731).
T2 construct: The human platelet fraction was prepared in accordance with Experiment 1 (1); from tissue; host or cells: human platelets from blood of healthy volunteers (membrane fraction)
T2 sequence (P21731 1-343): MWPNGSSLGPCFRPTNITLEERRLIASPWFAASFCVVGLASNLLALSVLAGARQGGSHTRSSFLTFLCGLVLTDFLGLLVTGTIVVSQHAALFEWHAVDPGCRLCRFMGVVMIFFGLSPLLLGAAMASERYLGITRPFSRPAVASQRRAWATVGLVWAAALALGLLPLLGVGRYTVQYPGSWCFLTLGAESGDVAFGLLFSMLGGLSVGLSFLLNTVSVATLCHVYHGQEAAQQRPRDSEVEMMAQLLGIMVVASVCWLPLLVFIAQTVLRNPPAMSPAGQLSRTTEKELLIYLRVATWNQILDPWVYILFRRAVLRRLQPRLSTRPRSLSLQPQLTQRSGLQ
The test can be described thus: Binding to TXA2 Receptor (human platelet membrane fraction, [3H](+)-S-145 sodium salt). The settings on record: 2 nM [3H](+)-S-145 sodium salt, pH 7.4, room temperature, 90 min, read-out: Inhibitory activity to TXA2 Receptor: IC50. Here is the method: (I) Preparation of Human Platelet Membrane Fraction
The human platelet fraction was prepared in accordance with Experiment 1 (1).
(2) Binding to TXA2 Receptor
To a binding-reaction solution (50 mM Tris/HCl, pH 7.4. 10 mM MgCl2) (0.2 ml) were added the human platelet membrane fraction (0.05 mg) and 2 nM Sodium [^3 H](+)-(5Z)-7-[3-endo-[(phenylsulfonyl)aminol]bicyclo[2.2. 1]hept-2-exo-iy]heptenoate (Japanese Patent Publication (Kokoku) No.79060/1993, hereinafter referred to as (+)-S-145 sodium salt) (26.4 Ci/mmol), and the mixture was reacted at room temperature for 90 min. After the reaction, the resultant mixture was filtered through a glass fiber filter paper and washed several times with cooled physiological saline, then the radioactivity retained on the filter paper was measured. The specific-binding ratio was calculated by subtracting the non-specific binding ratio (the radio activity similarly determined in the presence of 10 μM (+)-S-145 sodium salt) from the total binding. The inhibitory activity of each compound was expressed as the concentration required for 50% inhibition (IC50), which was determined by depicting a substitution curve by plotting the binding ratio (%) in the presence of each compound, where the binding ratio in the absence of a test compound is 100%.

Regarding `O=C(O)CCC/C=C\C[C@H]1[C@@H]2CC[C@@H](C2)[C@@H]1NC(=O)c1ccsc1` [Compd. 2, (5Z)-7-{(1R, 2S, 3S, 4S)-3-(Thiophen-3-carbonylamino)-bicyclo[2.2.1]hept-2-yl}-5-heptenoic acid], the IC50 (in general, the concentration that inhibits the measured activity by half) was determined as 360 nM in test [1] and 31 nM in test [2].

For the compound `O=C(O)CCC/C=C\C[C@H]1[C@@H]2CC[C@@H](C2)[C@@H]1NC(=O)c1csc2ccc(O)cc12` [Compd. 1, (5Z)-7-{(1R, 2S, 3S, 4S)-3-(5-Hydroxybenzo[b]thiophen-3-carbonylamino)-bicyclo[2.2. 1]hept-2-yl}-5-heptenoic acid], the “Inhibitory Rate (%)” value in test [3] was 74%. The results for the IC50 in test [1] and in test [2] were 3.9 nM and 9.6 nM, respectively.

Consider `O=C(O)CCC/C=C\C[C@H]1[C@@H]2CC[C@@H](C2)[C@@H]1NC(=O)c1csc2ccccc12` [Compd. 4, (5Z)-7-{(1R, 2S, 3S, 4S)-3-(Benzo[b]thiophen-3-carbonylamino)-bicyclo[2.2. 1]hept-2-yl}-5-heptenoic acid], for which the IC50 in test [4] came to 3800 nM; in test [1], 41 nM; in test [2] it was 8.2 nM.

Take `O=C(O)CCC/C=C\C[C@H]1[C@@H]2CC[C@@H](C2)[C@@H]1NC(=O)c1csc2cc(O)ccc12` [Compd. 6]: the figures for the IC50 in test [1] and in test [2] were 8.2 nM and 180 nM, respectively.

As to `O=C(O)CCC/C=C\C[C@H]1[C@@H]2CC[C@@H](C2)[C@@H]1NC(=O)c1csc2ccc(F)cc12` [Compd. 5, (5Z)-7-{(1R, 2S, 3S, 4S)-3-(5-Fluorobenzo[b]thiophen-3-carbonylamino)-bicyclo[2.2. 1]hept-2-yl}-5-heptenoic acid], the results for the half-maximal inhibitory concentration (IC50) in test [1] and in test [2] were 34 nM and 57 nM, respectively.

Consider `O=C(O)CCC/C=C\C[C@@H]1[C@H]2CC[C@H](C2)[C@H]1NC(=O)c1csc2ccc(O)cc12` [Compd. 18, (5Z)-7-{(1S, 2R, 3R, 4R)-3-(5-Hydroxybenzo[b]thiophen-3-carbonylamino)-bicyclo[2.2. 1]hept-2-yl}-5-heptenoic acid], for which the IC50 was 1800 nM in test [4], more than 1000 nM in test [1] and 5.5 nM in test [2].

Regarding `O=C(O)CCC/C=C\C[C@H]1[C@@H]2CC[C@@H](C2)[C@@H]1NC(=O)c1cccc2ccsc12` [Compd. 3, (5Z)-7-{(1R, 2S, 3S, 4S)-3-(Benzo[b]thiophen-7-carbonylamino)-bicyclo[2.2. 1]hept-2-yl}-5-heptenoic acid], the IC50 in test [1] is 22 nM; in test [2], 87 nM.
